According to patent publication US5677296A, “Carbamic acid derivatives of substituted dibenzoxazepine compounds, pharmaceutical compositions and methods of use” (G.D. Searle & Co., priority 1995, dated 1997):

Key:
[1] = test system: prostaglandin E2-induced contractions of guinea pig ileum; test: Prostaglandin (PGE) Antagonism Assay (inhibition of prostaglandin E2-induced contractions of segments of guinea pig ileum); conditions: test compound 3 × 10^-6 M, 30 min incubation; dose ratio of PGE2 EC50 values; average where more than one determined
Protocol: (b) Prostaglandin (PGE) Antagonism Assay
In order to determine the effectiveness of several of the compounds of the present invention ("test compounds") as prostaglandin E2 antagonists,a prostaglandin antagonism assay was conducted, as described below, to determine the ability of these compounds to inhibit prostaglandin E2 -induced contractions of segments of guinea pig ileum.
Male albino guinea pigs weighing 200 to 500 grams were sacrificed by cervical dislocation. The ilea were then quickly removed from the guinea pigs and placed in a modified Tyrode solution, a solution which is known to those skilled in the art, containing one-half of the usual amount of magnesium ions.
Segments of ileum about 2 cm long were then cut and mounted in a 10 mL tissue bath containing the modified Tyrode solution. The solution was maintained at 37° C. and aerated with a gaseous mixture of 95% oxygen and 5% carbon dioxide. Data for a control prostaglandin E2 dose response curve plotting concentration of prostaglandin E2 versus the intensity of contractions, detected isotonically, was then obtained by experimentally adjusting the dose of the prostaglandin E2 being injected into the tissue bath, in a manner known by those of skill in the art.
Solutions or suspensions containing an initial concentration (3 micromolar) of a test compound in modified Tyrode solution ("test solutions/suspensions") were then separately substituted for the control bath solution. Each test solution/suspension was then kept in constant contact with the ileum tissue, except for brief periods to drain the bath in preparation for rinsing with fresh test solution/suspension. A second prostaglandin E2 dose response curve was then generated for prostaglandin E2 in the presence of a test compound.
A control dose response curve is produced in isolated segments of guinea pig ileum mounted in an automated apparatus with six concentrations of prostaglandin E2. A solution or suspension of test compound is substituted for the control bathing solution and is incubated for thirty minutes. An additional prostaglandin E2 dose response curve is then performed in the presence of the test compound. A dose ratio is calculated from the EC50 values obtained from duplicate replications on each concentration of the test compound.
A dose ratio of EC50 doses was calculated from the results of each test in a manner known by those of skill in the art, and described above.
The dose ratios reported in Table 1 represent an average of multiple dose ratios for those compounds for which more than one dose ratio was determined. The compounds of the present invention which were tested in this assay, and for which results are presented in Table 1, correspond to the particular examples specified in Table 1.
The pA2 value (a statistical constant which is a common measure of expressing the potency of a particular drug as a competitive antagonist), rather than the dose ratio, was calculated for the test compound shown and described in Example 6 by schild plot calculations, as described by H. O. Schild, "pA, A New Scale for the Measurement of Drug Antagonism," Br. J. Pharmacol, 2, 189 (1947), and is reported in Table 1.

[2] = test system: phenylbenzoquinone (PBQ)-induced writhing in mice; test: Writhing Assay (PBQ-induced writhing in mice, analgesic activity); format: in vivo, mouse (Charles River male albino mice); conditions: 30 mpk, i.g., 30 min before PBQ i.p., fraction of mice
From the text: The Writhing Assay is one of the most widely-used experimental procedures for measuring the analgesic activity of different narcotic and nonnarcotic analgesic agents, and involves the continuous, chemically-induced pain of visceral origin to an animal, such as a mouse or rat. [Gyires et al., Arch. int. Pharmacodyn, 267, 131-140 (1984); C. Vander Wende et al., Fed. Proc., 15, 494 (1956); Koster et al., Fed. Proc., 18, 412 (1959); and Witken et al., J. Pharmacol. exp. Ther., 133, 400-408 (1961).] Chemicals which may be used to induce this pain include phenylbenzoquinone (PBQ) and acetic acid. As a result of the chemical irritation to the animal, a characteristic stretching and writhing of the animal (dorsiflexion of the animal's back, extension of its hindlimbs and the strong contraction of its abdominal musculature) will generally occur. […] Drugs which reduce the number of writhes of the animal appear to restore the normal nociceptive threshold of the animal.
Charles River male albino mice, weighing 20 to 30 grams, were used in this assay.
Thirty minutes after intragastric administration to ten mice of 30 mg per kilogram of body weight of a compound of the present invention ("test compound"), […] per 10 g of body weight of a 0.025% w/v solution of PBQ was injected intraperitoneally into each mouse. Ten mice which were given saline in place of a test compound of the invention were used as a control group.
Five minutes later, each mouse was individually placed into a glass beaker for observation, and the number of writhes occurring during the following ten-minute period was counted.
A test compound was considered to have produced analgesia in a mouse if, in accordance with the conditions set forth above, and under the test criteria employed for this assay, after the administration of 30 mg per kilogram of body weight of a compound of the present invention to the mouse, the number of writhes elicited by a mouse injected with PBQ was equal to, or less than, one-half the median number of writhes recorded for the saline-treated control group of mice that day, as described by Taber in "Predictive Value of Analgesic Assays in Mice and Rats," Advances in Biochemical Psychopharmacology, 8, 191 (1974).
The results for the particular compounds of the present invention analyzed in this assay, and discussed in the examples identified below which correspond thereto, are presented in Table 1 hereinbelow as fractions under the heading "WRITHING ASSAY." The fractions indicate the number of mice out of eight or ten in which a test compound produced analgesia.
The standard initial screening dose of a test compound employed in this assay was 30 mpk […]. Generally, if this initial screening dose of the test compound produced analgesia in seven out of ten mice, then the effect of additional doses of the test compound on the writhing response was evaluated, and then the ED50 dose was generally calculated. (The slopes of the dose-response curves for all test compounds analyzed were compared as described by Tallarida and Murray, Manual of Pharmacologic Calculations, Page 11 (Springer Verlag, New York, 1981)).
All ED50 doses calculated are also presented in Table 1 hereinbelow under the heading "WRITHING ASSAY," but as whole numbers.

| SMILES | PGE2 antagonism in guinea pig ileum: Dose Ratio at 3 × 10^-6 M [1] | Writhing assay: number of mice out of eight or ten in which test compound produced analgesia [2] | Writhing assay: number of mice out of eight or ten in which test compound produced analgesia ([2]; 30 mg/kg) |
| --- | --- | --- | --- |
| O=C1O[C@@H](c2ccccn2)[C@@H]2c3ccccc3Oc3ccc(Cl)cc3N12 (relative stereo) [Compound 11, cis-6-chloro-1,13b-dihydro-1-(2-pyridyl)-3H-dibenz[b,f]oxazolo[3,4-d][1,4]-oxazepin-3-one] | 8.6 | 2/8 |  |
| O=C1O[C@@H](c2ccncc2)[C@H]2c3ccccc3Oc3ccc(Cl)cc3N12 [Compound 6b, (-)-trans-6-chloro-1,13b-dihydro-1-(4-pyridyl)-3H-dibenz[b,f]oxazolo[3,4-d][1,4]oxazepin-3-one] | 2.7 |  | 6/10 |
| O=C1OC(c2ccncc2)c2c(Cl)ccc3c2N1Cc1ccccc1O3 (single isomer, unassigned; (-)) [Compound 5b, (-)-4-chloro-3-(4-pyridyl)-1H,3H,12H-[3,1]-benzoxazino[8,1-b,c][1, 4]benzoxazepin-1-one] | 80.5 |  | 4/10 |
| O=C1O[C@@H](c2ccncc2)[C@H]2c3ccccc3Oc3ccc(Cl)cc3N12 (relative stereo) [Compound 7, cis-6-chloro-1,13b-dihydro-1-(4-pyridyl)-3H-dibenz[b,f]oxazolo-[3,4-d][1,4]oxazepin-3-one] | 1.5 | 9/10 |  |
| O=C1OC(c2ccncc2)c2c(Cl)ccc3c2N1Cc1ccccc1O3 (single isomer, unassigned; (+)) [Compound 5a, (+)-4-chloro-3-(4-pyridyl)-1H,3H,12H-[3,1]benzoxazino-[8,1-b,c][1,4]benzoxazepin-1-one] | 5.2 |  | 8/10 |
| O=C1O[C@@H](c2ccncc2)[C@H]2c3ccccc3Oc3ccc(Cl)cc3N12 [Compound 6a, (+)-trans-6-chloro-1,13b-dihydro-1-(4-pyridyl)-3H-dibenz[b,f]oxazolo[3,4-d][1,4]oxazepin-3-one] | 23.4 |  | 2/10 |
